# From patent publication US12121514B2, “Nonselective metabotropic glutamate receptor activators for treatment of attention deficit disorder and 22Q syndrome” (THE CHILDREN'S HOSPITAL OF PHILADELPHIA, priority 2015, dated 2024)
# Test system: adolescent subjects with ADHD and at least one genetic alteration in an mGluR network gene
# Assay: Vanderbilt ADHD score (items 1-18, parent), Phase Ib trial of NFC-1
# Format: in vivo, human
# Conditions: relative to pre-study (enrollment) baseline
# From the text: The Vanderbilt Rating Scale is a measure that can be completed by parents or teachers (separate forms, see Vanderbilt Rating Scale Parents and Vanderbilt Rating Scale Teachers). The Vanderbilt scale rates the child's behavior on items such as attention, finishing tasks, hyperactivity, difficulty waiting, and measures of conduct or oppositional defiant disorders—as well as measures of overall school performance and interactions with others. The first 18 items on the Vanderbilt scale correspond to those of the ADHD Rating Scale IV above while the Vanderbilt scale also includes items 19-47 related to other mental disorders including ODD (items 19-26), conduct disorder (items 27-40), anxiety (items 41, 42, and 47), and depression (items 43-46). Each of the behavioral assessment items on the Vanderbilt Scale are rated 0, 1, 2, or 3, with 0=never occurring; 1=occasionally, 2=often, and 3=very often. Thus, the ADHD Rating Scale IV, ADHD Rating Scale V, and items 1-18 of the Vanderbilt Rating Scale are equivalent scales, while additional items on the Vanderbilt Scale assess co-morbid phenotypes and disorders.
# Each of the items are rated on a scale of 0, 1, 2, or 3, with 0=never; 1=occasionally, 2=often, and 3=very often. A total score of 0 to 54 is computed based on the answers to the 18 questions.
# As used herein an “ADHD rating scale score,” “ADHD score” or “Vanderbilt ADHD score” are used interchangeably to refer to the computed score of the 18 items of the ADHD Rating Scale IV or V or the first 18 items of the Vanderbilt Rating Scale in any of their associated versions, e.g., for parent, teacher, or clinician to complete, and for a pediatric subject or adult subject. Clinical trials may assess the impact of drug or placebo on the ADHD score or Vanderbilt ADHD score (i.e. the score of 0 to 54 based on the first 18 items in the ADHD or Vanderbilt rating scale). In some cases, results of a clinical trial population may be analyzed by comparing the average score or a percentage change in score over time of administration of drug.
# An open-label Phase Ib clinical trial was initiated to investigate the safety, pharmacokinetics and efficacy of NFC-1 (fasoracetam monohydrate) in adolescent subjects between the ages of 12 and 17 previously diagnosed with ADHD who also had at least one genetic alteration in an mGluR network gene.
# Dose-escalation phase of the trial followed the PK and initial safety assessment and ran over a 5-week period. During week 1, all subjects were administered placebo capsules twice daily. After one week of placebo treatment, patients were started on 50 mg bid NFC-1 for 1 week. If safety and responsiveness data from prior dose level of fasoracetam indicated it was appropriate, subjects were then escalated to the next higher dose (100, 200, or 400 mg). […] Of the 30 trial subjects, 3 received a maximum dose of 100 mg, 9 received a maximum dose of 200 mg, and the remaining 18 received a maximum dose of 400 mg.
# All efficacy assessments, except actigraphy, were made at study enrollment (“enrollment baseline”) and again, including actigraphy, once-per-week for the placebo week (“week 1” or “placebo baseline”) and at each of the 4 weeks of NFC-1 treatment. These efficacy measures include items 1-18 of the Vanderbilt scale assessing symptoms related to inattentiveness and hyperactivity-impulsiveness as well as additional questions 19-47 of the Vanderbilt scale assessing other behavioral symptoms (conducted by parent), actigraphy for quantitative measurement of activity, Quotient® ADHD test for objective measurement of micro-motion and shifts in attention state, PERMP-Math test, and CGI-I and CGI-S for assessment of global functioning. […]
# [1] = Tier 1, Week 5, up to 400 mg bid
# [2] = Tier 2, Week 3, up to 100 mg bid
# [3] = Tier 2, Week 4, up to 200 mg bid
# [4] = Tier 2, Week 5, up to 400 mg bid
# [5] = Tier 3, Week 3, up to 100 mg bid
# [6] = Tier 3, Week 4, up to 200 mg bid
# [7] = Tier 3, Week 5, up to 400 mg bid
smiles,measurement,setting,value
"O=C1CC[C@H](C(=O)N2CCCCC2)N1 [NFC-1, fasoracetam monohydrate]",Percent of subjects with improvement in Vanderbilt ADHD score (at least 25% decrease),"Tier 1, Week 4, up to 200 mg bid",88%
same,Percent of subjects completing the dose escalation to 400 mg bid that show improvement in Vanderbilt ADHD scores (at least 25% decrease),"Tier 1, Week 5, 400 mg bid",89%
same,Percent of subjects completing the dose escalation to 400 mg bid that show robust improvement in Vanderbilt ADHD scores (at least 40% decrease),"Tier 1, Week 5, 400 mg bid",67%
same,Percent of subjects demonstrating robust improvement in Vanderbilt ADHD score (at least 40% decrease),[1],63%
same,Percent of subjects with improvement in Vanderbilt ADHD score (at least 25% decrease),[1],75%
same,Percent of subjects completing the dose escalation to 400 mg bid that show improvement in Vanderbilt ADHD scores (at least 25% decrease),"Tier 2, Week 2, 50 mg bid",20%
same,Percent of subjects completing the dose escalation to 400 mg bid that show robust improvement in Vanderbilt ADHD scores (at least 40% decrease),"Tier 2, Week 2, 50 mg bid",20%
same,Percent of subjects demonstrating robust improvement in Vanderbilt ADHD score (at least 40% decrease),"Tier 2, Week 2, 50 mg bid",14%
same,Percent of subjects with improvement in Vanderbilt ADHD score (at least 25% decrease),"Tier 2, Week 2, 50 mg bid",29%
same,Percent of subjects completing the dose escalation to 400 mg bid that show improvement in Vanderbilt ADHD scores (at least 25% decrease),"Tier 2, Week 3, 100 mg bid",20%
same,Percent of subjects completing the dose escalation to 400 mg bid that show robust improvement in Vanderbilt ADHD scores (at least 40% decrease),"Tier 2, Week 3, 100 mg bid",0%
same,Percent of subjects demonstrating robust improvement in Vanderbilt ADHD score (at least 40% decrease),[2],0%
same,Percent of subjects with improvement in Vanderbilt ADHD score (at least 25% decrease),[2],14%
same,Percent of subjects completing the dose escalation to 400 mg bid that show improvement in Vanderbilt ADHD scores (at least 25% decrease),"Tier 2, Week 4, 200 mg bid",20%
same,Percent of subjects completing the dose escalation to 400 mg bid that show robust improvement in Vanderbilt ADHD scores (at least 40% decrease),"Tier 2, Week 4, 200 mg bid",20%
same,Percent of subjects demonstrating robust improvement in Vanderbilt ADHD score (at least 40% decrease),[3],14%
same,Percent of subjects with improvement in Vanderbilt ADHD score (at least 25% decrease),[3],43%
same,Percent of subjects completing the dose escalation to 400 mg bid that show improvement in Vanderbilt ADHD scores (at least 25% decrease),"Tier 2, Week 5, 400 mg bid",80%
same,Percent of subjects completing the dose escalation to 400 mg bid that show robust improvement in Vanderbilt ADHD scores (at least 40% decrease),"Tier 2, Week 5, 400 mg bid",20%
same,Percent of subjects demonstrating robust improvement in Vanderbilt ADHD score (at least 40% decrease),[4],29%
same,Percent of subjects with improvement in Vanderbilt ADHD score (at least 25% decrease),[4],86%
same,Percent of subjects completing the dose escalation to 400 mg bid that show improvement in Vanderbilt ADHD scores (at least 25% decrease),"Tier 3, Week 2, 50 mg bid",33%
same,Percent of subjects completing the dose escalation to 400 mg bid that show robust improvement in Vanderbilt ADHD scores (at least 40% decrease),"Tier 3, Week 2, 50 mg bid",33%
same,Percent of subjects demonstrating robust improvement in Vanderbilt ADHD score (at least 40% decrease),"Tier 3, Week 2, 50 mg bid",50%
same,Percent of subjects with improvement in Vanderbilt ADHD score (at least 25% decrease),"Tier 3, Week 2, 50 mg bid",50%
same,Percent of subjects completing the dose escalation to 400 mg bid that show improvement in Vanderbilt ADHD scores (at least 25% decrease),"Tier 3, Week 3, 100 mg bid",0%
same,Percent of subjects completing the dose escalation to 400 mg bid that show robust improvement in Vanderbilt ADHD scores (at least 40% decrease),"Tier 3, Week 3, 100 mg bid",0%
same,Percent of subjects demonstrating robust improvement in Vanderbilt ADHD score (at least 40% decrease),[5],40%
same,Percent of subjects with improvement in Vanderbilt ADHD score (at least 25% decrease),[5],40%
same,Percent of subjects completing the dose escalation to 400 mg bid that show improvement in Vanderbilt ADHD scores (at least 25% decrease),"Tier 3, Week 4, 200 mg bid",0%
same,Percent of subjects completing the dose escalation to 400 mg bid that show robust improvement in Vanderbilt ADHD scores (at least 40% decrease),"Tier 3, Week 4, 200 mg bid",0%
same,Percent of subjects demonstrating robust improvement in Vanderbilt ADHD score (at least 40% decrease),[6],40%
same,Percent of subjects with improvement in Vanderbilt ADHD score (at least 25% decrease),[6],40%
same,Percent of subjects completing the dose escalation to 400 mg bid that show improvement in Vanderbilt ADHD scores (at least 25% decrease),"Tier 3, Week 5, 400 mg bid",67%
same,Percent of subjects completing the dose escalation to 400 mg bid that show robust improvement in Vanderbilt ADHD scores (at least 40% decrease),"Tier 3, Week 5, 400 mg bid",33%
same,Percent of subjects demonstrating robust improvement in Vanderbilt ADHD score (at least 40% decrease),[7],50%
same,Percent of subjects with improvement in Vanderbilt ADHD score (at least 25% decrease),[7],75%
